Results from patent publication US20230213511A1, “METHOD FOR EVALUATING ALLERGEN INACTIVATORS AND KIT FOR EVALUATING ALLERGEN INACTIVATORS” (SCHOOL CORPORATION, AZABU VETERINARY MEDICINE EDUCATIONAL …, priority 2020, published 2023).

Experiments:
[1] = molecular target: T1, purified Japanese cedar pollen allergens "Cry j1" (Cryptomeria japonica, UniProt P18632); test: Immunostaining of Cry j1 on multiscreen filter plate with PVDF filter membrane after treatment using the test drug; format: biochemical; conditions: test example 9, two hours at normal temperature, 0.1% SDS, 6M guanidine, other drugs of FIG. 16, vs PBS
T1 construct: purchased ITEA Inc
T1 sequence (P18632 22-374): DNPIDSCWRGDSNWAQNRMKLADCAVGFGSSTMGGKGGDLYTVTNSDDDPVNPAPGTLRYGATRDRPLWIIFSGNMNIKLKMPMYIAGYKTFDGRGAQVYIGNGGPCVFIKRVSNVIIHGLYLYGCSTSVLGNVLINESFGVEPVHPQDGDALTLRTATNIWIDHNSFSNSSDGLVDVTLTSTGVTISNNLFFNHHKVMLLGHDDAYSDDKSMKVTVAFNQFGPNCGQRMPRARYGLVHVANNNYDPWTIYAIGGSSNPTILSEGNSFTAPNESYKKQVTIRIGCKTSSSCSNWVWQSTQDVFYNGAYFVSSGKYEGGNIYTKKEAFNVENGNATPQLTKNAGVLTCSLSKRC
Text: […]

[2] = molecular target: T2, purified mite allergens "Der f1" (Dermatophagoides farinae, UniProt P16311); test: Immunostaining of purified mite allergens supported on a PVDF membrane after treatment using the test drug; format: biochemical; conditions: two hours at normal temperature, vs PBS (−); for capacity for recognition by the specific antibodies (anti-Der f1 monoclonal antibodies), immunostaining: 5 ppm Bi-jia water, 5 ppm sodium hypochlorite, 6M guanidine; for properties enabling recognition by the specific antibodies (anti-Der f1 monoclonal antibodies), immunostaining: test example 3, 30 v/v % hydrogen peroxide water, 10 mM hydrochloric acid (pH 2)
T2 construct: purchased ITEA Inc
T2 sequence (P16311 99-321): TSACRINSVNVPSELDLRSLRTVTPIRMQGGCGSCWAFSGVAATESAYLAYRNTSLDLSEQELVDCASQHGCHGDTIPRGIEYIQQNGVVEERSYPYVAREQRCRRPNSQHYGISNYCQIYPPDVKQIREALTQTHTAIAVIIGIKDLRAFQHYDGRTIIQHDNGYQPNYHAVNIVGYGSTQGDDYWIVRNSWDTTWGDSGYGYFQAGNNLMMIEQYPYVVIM
Procedure: (3-1. PVDF membrane) • A PVDF membrane (pore diameter: 0.45 μm) was immersed in methanol to be made hydrophilic, after which a prescribed quantity of allergens was blotted onto the PVDF membrane in a dot formation (0-100 ng/dot).
(4. Treatment using test drug) • The allergen-supporting membrane was washed three times using PBS (−). • The membrane was placed in a plastic container and immersed in 5 mL of a solution containing the test drug. • The membrane was allowed to stand for two hours at normal temperature. • The solution of the test drug was discarded, and the membrane was washed three times using PBS (−). • Protein staining or immunostaining was carried out.
(6. Immunostaining) • The allergen-supporting membrane (after “4. Treatment using test drug” described above) was immersed in 1 w/v % gelatin-containing PBS and was blocked for ten minutes at 37° C. • The blocking liquid was discarded, and the membrane was washed three times using PBS (−). • Primary antibodies were diluted using 1 w/v % BSA-containing PBST (0.02 v/v % Tween-20) so as to reach a concentration of 1 μg/mL, 2 mL of the primary antibodies was added to the blocked membrane, and a reaction was carried out for 30 minutes at normal temperature while the membrane was shaken. • A primary antibody reaction solution was discarded, and the membrane was washed three times using PBST. • HRP-labeled secondary antibodies (product name “HRP-Goat anti-Mouse IgG,” made by Zymed Laboratories) were diluted using 1 w/v % BSA-containing PBST (0.02 v/v % Tween-20) so as to reach a concentration of 3 μg/mL, 2 mL of the secondary antibodies was added to the membrane reacted with the primary antibodies, and a reaction was carried out for 30 minutes at normal temperature while the membrane was shaken. • A secondary antibody reaction solution was discarded, and the membrane was washed four times using PBST. • An amount of 1 mL of a coloring reagent solution (product name “Ez West Blue,” made by ATTO Co., Ltd.) was added to the membrane reacted with the secondary antibodies, and a reaction was carried out for ten minutes. • The membrane was washed using a large amount of distilled water, and the reaction was stopped. • The membrane was allowed to spontaneously dry.
(§1) Specifically, purified mite allergens were dot-blotted in an amount of 0, 12.5, 25, 50, or 100 ng onto a single PVDF membrane cut into a rectangular strip to produce an allergen-supporting membrane. Two identical allergen-supporting membranes were provided in this manner. First, the two allergen-supporting membranes were treated using the same test drug, a washing treatment using PBS was furthermore carried out, and then one of the treated membranes was supplied for protein staining using the gold stain and the other of the treated membranes was supplied for immunostaining using the anti-Der f1 monoclonal antibodies.
as §1, with “4, 20,” for “12.5, 25, 50,”, “antibodies. […]” for “antibodies.”

[3] = molecular target: T1, purified Japanese cedar pollen allergens "Cry j1"; test: Immunostaining of Cry j1 on multiscreen filter plate with cellulose mixed ester filter membrane after treatment using the test drug; format: biochemical; conditions: test example 8, two hours at normal temperature, 5 ppm NaClO (Bi-jia water), 6M guanidine, other drugs of FIG. 15, vs PBS
Procedure: A test for evaluating allergen inactivators was conducted using, as an allergen support, a multiscreen filter plate (MultiScreen HTS HA sterile plate, Millipore, #MSHAS4510) provided with a filter membrane composed of a cellulose mixed ester (substance similar to nitrocellulose) in each well. Specifically, as per the main points of the operational procedure for the test shown in FIG. 6, a test was conducted in accordance with the following protocol.
(1. Formulation of Allergen-Supporting Membrane and Treatment Carried Out Using Test Drug) • An amount of 2 μL of purified Japanese cedar pollen allergens (product name “Cry j1”) (made by ITEA Inc.) (origin: Japanese cedar (Cryptomeria japonica)) in each stage of dilution (50, 10, 2, or 0 ng/μL) was added dropwise into each well of the multiscreen filter plate and was allowed to spontaneously dry. • Filtration washing was carried out three times using 200 μL of PBS. • An amount of 200 μL of the drugs being examined (the various drugs being examined, and concentrations thereof, shown in FIG. 15; PBS as a control) was added, and the multiscreen filter plate was allowed to stand for two hours at normal temperature. • The drugs being examined were removed through pipetting. • Filtration washing was carried out three times using 200 μL of PBS. • To immunostaining or gold staining […]

[4] = system: extract from the grass Phleum pratense, the weed Plantago lanceolata, or house dust containing Dermatophagoides pteronyssinus; conditions: extract treated using a 1% aqueous solution of tannic acid; cited from earlier work
[5] = test example 2, PVDF membrane, 0, 4, 20, 100 ng/dot, 0.1 w/v % SDS
[6] = PVDF membrane, 0, 4, 20, 100 ng/dot

CCCCCCCCCCCCOS(=O)(=O)[O-].[Na+] [SDS]
capacity for recognition by the specific antibodies (anti-Cry j1 monoclonal antibodies), immunostaining [1]: notably weakened | capacity for recognition by the specific antibodies (anti-Der f1 monoclonal antibodies), immunostaining [2, 5]: notably weakened

N=C(N)N [guanidine]
capacity for recognition by the specific antibodies (anti-Cry j1 monoclonal antibodies), immunostaining [3]: notably weakened | capacity for recognition by the specific antibodies (anti-Cry j1 monoclonal antibodies), immunostaining [1]: notably weakened

Cl [hydrochloric acid]
properties enabling recognition by the specific antibodies (anti-Der f1 monoclonal antibodies), immunostaining [2, 6]: weakened

OO [hydrogen peroxide water, hydrogen peroxide]
properties enabling recognition by the specific antibodies (anti-Der f1 monoclonal antibodies), immunostaining [2, 6]: weakened

OCl [sodium hypochlorite]
capacity for recognition by the specific antibodies (anti-Der f1 monoclonal antibodies), immunostaining ([2]; test example 1, PVDF membrane, 0-100 ng/dot): notably weakened | capacity for recognition by the specific antibodies (anti-Der f1 monoclonal antibodies), immunostaining [2, 5]: notably weakened

O=C(OC[C@H]1O[C@@H](OC(=O)c2cc(O)c(O)c(OC(=O)c3cc(O)c(O)c(O)c3)c2)[C@H](OC(=O)c2cc(O)c(O)c(OC(=O)c3cc(O)c(O)c(O)c3)c2)[C@@H](OC(=O)c2cc(O)c(O)c(OC(=O)c3cc(O)c(O)c(O)c3)c2)[C@@H]1OC(=O)c1cc(O)c(O)c(OC(=O)c2cc(O)c(O)c(O)c2)c1)c1cc(O)c(O)c(OC(=O)c2cc(O)c(O)c(O)c2)c1 [tannic acid]
allergenicity in a cutaneous reaction test [4]: allergenicity can be mitigated
